A word on the GI50: it is the concentration giving 50% growth inhibition. The low end stands for more potent growth inhibition, the high end for less potent growth inhibition. Broadly, the LC50 is the concentration lethal to half of the exposed cells or organisms. Read a low LC50 as greater toxicity.

Some results are limits rather than exact numbers.

In one assay the test system is NCIH 460 cells. Kind of assay: Anti-cancer screen (MTT), NCIH460. In kind it is cell-based. Conditions: Homo sapiens, NCI-H460, NCIH460 cells, 48 hours, MTT; for GI50: concentration to decrease % growth by 50%; for IC100: concentration to decrease % growth by 100%, read-out: NCIH460 TGI; for LC50: concentration to decrease % growth by 150%. The method, boiled down: (§1)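 HCT116, NCIH460 and U251 cells (5000/well, DMEM + 10% FBS) seeded 24 h, then treated 48 h in triplicate at 0.01, 0.1, 1, 10, 100 μM; time-zero plate kept. MTT 3 h, formazan in DMSO read at 570 nm; GI50, TGI, LC50 derived.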

Assay [1] deals with HDAC (Mouse Liver Extract). Kind of assay: Histone Deacetylase (HDAC) Inhibition Assay using Boc-Lys (Ac)-AMC Substrate. Conditions: mouse liver enzyme, NA = No Activity, in % (unit assumed). In kind it is biochemical. The method, boiled down:
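Mouse liver extract was the HDAC source. It was preincubated with inhibitor for 5 min at 30° C, then incubated with Boc-Lys(Ac)-AMC substrate for 30 min at 30° C. Trypsin stop solution was added for a 20–30 min development step, and released AMC was read by fluorescence (ex 360/365, em 440/460 nm) with blank subtraction.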

The subject of another assay is MDAMB231/U251. The assay can be described thus: Anti-cancer screen (MTT), MDAMB231/U251. In kind it is cell-based. Conditions: MDAMB231/U251 cells, 48 hours; for GI50: concentration to decrease % growth by 50%; for IC100: concentration to decrease % growth by 100%, read-out: MDAMB231/U251 TGI; for LC50: concentration to decrease % growth by 150%. The method, boiled down: as §1

The next assay has as its system HCT 116 cells. The assay can be described thus: Anti-cancer screen (MTT), HCT116. In kind it is cell-based. Conditions: Homo sapiens, HCT-116, HCT116 cells, 48 hours, MTT; for GI50: concentration to decrease % growth by 50%; for IC100: concentration to decrease % growth by 100%, read-out: HCT116 TGI; for LC50: concentration to decrease % growth by 150%. The method, boiled down: as §1

The test system of assay [2] is NCIH460, HCT116, MDAMB231/U251. The assay can be described thus: Anti-cancer screen, mean GI50 over the cell lines. It counts as cell-based. Conditions: in µM. The method, boiled down: as §1

For the compound `CC(=O)NCCCCCC(=O)N1CCN(CC(=O)Nc2nc3ccccc3s2)CC1` [Example 43], in the assay with NCIH 460 cells, the GI50 was over 100 µM, the IC100 was over 100 µM and the LC50 is over 100 µM. In addition, in assay [1], the “HDAC Inhibition 1 μM” value stood at 2.61 and the “HDAC Inhibition 10 μM” value turned out to be 5.24. For the same compound, in the assay with MDAMB231/U251, the GI50 is over 100 µM, the IC100 is over 100 µM and the LC50 was over 100 µM. In the assay on HCT 116 cells, the GI50 amounted to 90 µM, the IC100 was over 100 µM and the LC50 was over 100 µM. The “Mean GI50” value in assay [2] is over 100.
For `N[C@H](CO)C(=O)NCCCCCC(=O)N1CCN(CC(=O)Nc2nc3ccccc3s2)CC1` [Example 44], in the assay on NCIH 460 cells, the GI50 is over 100 µM, the IC100 is over 100 µM and the LC50 was over 100 µM. In assay [1], the “HDAC Inhibition 1 μM” value is 5.45 and the “HDAC Inhibition 10 μM” value is 1.79. Further, in the assay with MDAMB231/U251, the GI50 was over 100 µM, the IC100 was over 100 µM and the LC50 is over 100 µM. In the assay on HCT 116 cells, the GI50 was over 100 µM, the IC100 is over 100 µM and the LC50 was over 100 µM. Moreover, in assay [2], the “Mean GI50” value is on record as over 100.

The record behind these values is US20070088043A1, “Novel HDAC inhibitors” (ORCHID RESEARCH LABORATORIES LIMITED., priority 2005, published 2007).
